Assay [1] has as its target T1, SulE (Hansschlegelia zhihuaiae, UniProt G9I933).
T1 construct: pET-29a(+), E. coli BL21(DE3), C-terminal His6 tag; full-length precursor 398 aa, predicted signal peptide cleavage Ala37/Glu38; homodimer, lid loop of one subunit covers active site of the other; residues 12-360 (mature count) seen in crystal
Briefly: X-ray crystal structure (co-crystal with CE, hydrolysed in crystallisation). Format: binding. Conditions: 5 mM CE, 4 °C, pH 5.5; active site.

Assay [2] addresses SulE (wild-type esterase from Hansschlegelia zhihuaiae S113) (Hansschlegelia zhihuaiae S113). Briefly: crystal structure; X-ray crystal structures of purified SulE and mutants; apo-SulE at 1.46 Å, space group P21, two monomers in the asymmetric unit; sitting-drop vapor diffusion at 4 °C; apo-SulE in 0.1 M citric acid-trisodium citrate pH 5.5, 20% PEG 4000; cocrystals and P44R mutants in 0.1 M ammonium tartrate dibasic pH 7.0, 12-15% PEG 3350, with 5 mM substrate.

Assay [3] has as its target T1, SulE. Briefly: SPR (Biacore T200, protein amine-coupled to CM7 chip), steady-state affinity. The format is binding.
The target in assay [4] is T2, SulE (Hansschlegelia zhihuaiae, UniProt G9I933, P80R).
T2 construct: pET-29a(+), E. coli BL21(DE3), C-terminal His6 tag; full-length precursor 398 aa, predicted signal peptide cleavage Ala37/Glu38; homodimer, lid loop of one subunit covers active site of the other; residues 12-360 (mature count) seen in crystal
Described as above. The format is binding.

The target of assay [5] is T3, SulE (Hansschlegelia zhihuaiae, UniProt G9I933, S245A/H369A).
T3 construct: pET-29a(+), E. coli BL21(DE3), C-terminal His6 tag; full-length precursor 398 aa, predicted signal peptide cleavage Ala37/Glu38; homodimer, lid loop of one subunit covers active site of the other; residues 12-360 (mature count) seen in crystal
Briefly: X-ray crystal structure (co-crystal). Format: binding. Conditions: 5 mM substrate, 4 °C, pH 7.0; active site, catalytically dead mutant.

In assay [6] the target is T4, SulE (Hansschlegelia zhihuaiae, UniProt G9I933, P80R/S245A/H369A).
T4 construct: pET-29a(+), E. coli BL21(DE3), C-terminal His6 tag; full-length precursor 398 aa, predicted signal peptide cleavage Ala37/Glu38; homodimer, lid loop of one subunit covers active site of the other; residues 12-360 (mature count) seen in crystal
Briefly: X-ray crystal structure (co-crystal). Format: binding. Conditions: 5 mM substrate, 4 °C, pH 7.0; active site, catalytically dead mutant.

T3 sequence (G9I933 entry or part of it S245A/H369A): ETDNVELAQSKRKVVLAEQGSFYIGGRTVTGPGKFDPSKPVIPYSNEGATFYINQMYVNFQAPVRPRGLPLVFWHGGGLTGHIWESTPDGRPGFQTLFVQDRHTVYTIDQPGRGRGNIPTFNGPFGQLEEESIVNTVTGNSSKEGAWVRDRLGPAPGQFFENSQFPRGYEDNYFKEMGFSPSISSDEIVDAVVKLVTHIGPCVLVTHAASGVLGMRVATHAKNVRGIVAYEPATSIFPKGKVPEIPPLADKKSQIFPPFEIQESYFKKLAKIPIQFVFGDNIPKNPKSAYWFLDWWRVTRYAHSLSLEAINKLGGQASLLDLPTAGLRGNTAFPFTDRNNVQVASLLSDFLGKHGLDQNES
T1 sequence (G9I933 entry or part of it): as the sequence (G9I933 entry or part of it S245A/H369A) above, with A208S, A332H counted along it
T2 sequence (G9I933 entry or part of it P80R): as the sequence (G9I933 entry or part of it S245A/H369A) above, with P43R, A208S, A332H counted along it
T4 sequence (G9I933 entry or part of it P80R/S245A/H369A): as the sequence (G9I933 entry or part of it S245A/H369A) above, with P43R counted along it

For the molecule `COc1cc(Cl)nc(NC(=O)NS(=O)(=O)c2ccccc2C(=O)O)n1` [CA, chlorimuron acid], the “X-ray crystal structure (co-crystal with CE, hydrolysed in crystallisation)” value in assay [1] is “crystal structures of wild-type SulE in complex with CA”.

On to “SulE (wild-type esterase from Hansschlegelia zhihuaiae S113) (enzyme)”, for which the stoichiometry N (commonly a count of units in the complex or per binding partner) in assay [2] worked out at 2.

In the case of `COC(=O)c1ccccc1CS(=O)(=O)NC(=O)Nc1nc(OC)cc(OC)n1` [BM, bensulfuron-methyl], the figures for the Kd in assay [3] and in assay [4] were 6.34 µM and 5.75 µM, respectively. On to `CCOc1nc(NC)nc(NC(=O)NS(=O)(=O)c2ccccc2C(=O)OC)n1` [EM, ethametsulfuron-methyl], for which the “X-ray crystal structure (co-crystal)” value in assay [5] is “mutant S209A/H333A in complex with MM, SM, TM, TrM, EM, BM, and CE”. On to `CCOC(=O)c1ccccc1S(=O)(=O)NC(=O)Nc1nc(Cl)cc(OC)n1` [CE, chlorimuron-ethyl], for which the results for the dissociation constant Kd in assay [3] and in assay [4] were 5.29 µM and 1.36 µM, respectively. For `COC(=O)c1sccc1S(=O)(=O)NC(=O)Nc1nc(C)nc(OC)n1` [TM, thifensulfuron-methyl] the same measures were 8.85 µM and 7.25 µM. Turning to `COC(=O)c1ccccc1S(=O)(=O)NC(=O)N(C)c1nc(C)nc(OC)n1` [TrM, tribenuron-methyl], the “X-ray crystal structure (co-crystal)” value in assay [5] is “mutant S209A/H333A in complex with MM, SM, TM, TrM, EM, BM, and CE”. For `COC(=O)c1ccccc1S(=O)(=O)NC(=O)Nc1nc(C)nc(OC)n1` [MM, metsulfuron-methyl], the Kd (usually the constant that tells how readily two partners part at equilibrium) is 5.58 µM in assay [3] and 2.89 µM in assay [4]. Moreover, the “X-ray crystal structure (co-crystal)” value in assay [5] was “mutant S209A/H333A in complex with MM, SM, TM, TrM, EM, BM, and CE”; in assay [6], “the triple mutant P44R/S209A/H333A in complex with MM, CE, and TM”.
